Where “and” joins values, the source holds several entries; their conditions need not be identical. Equal entries are not always repeated.
T1: Gox0646 (Gluconobacter oxydans, UniProt Q5FT73)
T1 sequence (Q5FT73 1-264): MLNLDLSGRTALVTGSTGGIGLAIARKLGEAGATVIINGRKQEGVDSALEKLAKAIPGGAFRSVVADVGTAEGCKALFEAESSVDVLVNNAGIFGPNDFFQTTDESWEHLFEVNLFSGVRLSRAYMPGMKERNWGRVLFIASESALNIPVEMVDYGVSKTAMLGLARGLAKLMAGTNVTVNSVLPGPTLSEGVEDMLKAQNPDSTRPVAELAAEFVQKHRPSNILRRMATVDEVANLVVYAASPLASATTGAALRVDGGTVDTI

T2: Gox2684 (Gluconobacter oxydans, UniProt Q5HXK5)
T2 sequence (Q5HXK5 1-357): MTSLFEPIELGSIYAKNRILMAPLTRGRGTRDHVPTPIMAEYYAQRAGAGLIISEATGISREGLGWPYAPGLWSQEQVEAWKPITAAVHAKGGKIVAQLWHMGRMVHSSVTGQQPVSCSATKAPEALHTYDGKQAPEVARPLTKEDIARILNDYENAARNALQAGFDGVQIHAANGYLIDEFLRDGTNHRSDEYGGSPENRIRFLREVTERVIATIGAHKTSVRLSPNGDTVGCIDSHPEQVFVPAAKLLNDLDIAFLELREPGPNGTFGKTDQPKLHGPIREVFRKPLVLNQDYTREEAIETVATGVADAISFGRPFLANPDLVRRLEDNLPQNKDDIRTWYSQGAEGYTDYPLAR

T3: Gox0502 (Gluconobacter oxydans, UniProt Q5FTL6)
T3 sequence (Q5FTL6 1-361): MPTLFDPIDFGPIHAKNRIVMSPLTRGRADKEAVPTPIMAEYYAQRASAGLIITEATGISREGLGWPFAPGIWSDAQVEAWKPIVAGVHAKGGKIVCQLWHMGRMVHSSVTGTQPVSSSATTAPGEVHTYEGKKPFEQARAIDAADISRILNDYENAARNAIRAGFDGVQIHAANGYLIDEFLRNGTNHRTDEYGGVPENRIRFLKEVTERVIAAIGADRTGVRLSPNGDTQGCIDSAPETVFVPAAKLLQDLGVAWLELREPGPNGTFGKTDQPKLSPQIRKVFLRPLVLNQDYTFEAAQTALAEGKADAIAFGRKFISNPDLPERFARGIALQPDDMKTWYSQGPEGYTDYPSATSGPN

T4: Gox0313 (Gluconobacter oxydans, UniProt Q5FU50)
T4 sequence (Q5FU50 1-343): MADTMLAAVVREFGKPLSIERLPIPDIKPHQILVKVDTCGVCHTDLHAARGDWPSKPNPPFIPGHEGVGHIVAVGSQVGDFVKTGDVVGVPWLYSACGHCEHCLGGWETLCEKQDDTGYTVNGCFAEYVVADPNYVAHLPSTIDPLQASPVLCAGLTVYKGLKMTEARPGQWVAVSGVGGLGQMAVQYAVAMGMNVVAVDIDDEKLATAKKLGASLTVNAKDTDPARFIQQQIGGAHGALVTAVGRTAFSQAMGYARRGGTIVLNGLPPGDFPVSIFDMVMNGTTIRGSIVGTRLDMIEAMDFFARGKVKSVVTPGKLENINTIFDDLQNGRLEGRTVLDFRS

T5: Gox1615 (Gluconobacter oxydans, UniProt Q5FQJ0)
T5 sequence (Q5FQJ0 1-332): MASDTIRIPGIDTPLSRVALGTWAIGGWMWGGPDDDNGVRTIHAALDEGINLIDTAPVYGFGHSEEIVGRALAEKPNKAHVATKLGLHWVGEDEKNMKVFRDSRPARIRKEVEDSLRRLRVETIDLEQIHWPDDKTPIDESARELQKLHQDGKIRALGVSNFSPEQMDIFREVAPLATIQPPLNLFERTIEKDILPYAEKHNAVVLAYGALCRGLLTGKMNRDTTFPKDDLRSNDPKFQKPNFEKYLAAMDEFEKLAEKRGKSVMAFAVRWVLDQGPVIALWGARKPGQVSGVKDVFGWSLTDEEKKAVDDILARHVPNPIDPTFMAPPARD


Key:
Gox0646 = molecular target: T1, Gox0646; assay: Enzyme activity assay (rate of NAD(P)H decrease at 340 nm), Gox0646; format: biochemical; settings: 10 mM substrate; for Specific Activities: Tab. 9, GOX0646, cofactor NADPH, pH 7.0, 30 °C
Procedure: (§1) Measurment of enzyme activity: NADPH-dependent alpha-ketocarbonyl reductases were assayed by a routine method used for NAD(P)-linked enzymes by recording the rate of decrease of NADPH at 340 nm (ε = 6.22 mM^-1 x cm^-1)) with substrates at 30 °C. The reaction mixture (1 ml) for reduction of alpha-ketocarbonyl substrates contained 10 mM substrate, 40 mM potassium phosphate buffer pH 7.0, 0.025 mM NAD(P)H , and the enzyme. Reactions were induced by addition of enzyme or substrate. One unit of enzyme activity was defined as the amount of enzyme catalyzing the conversion of 1 µmol of pyridine nucleotide per min at 30 °C.
(§2) NADPH-dependent α-ketocarbonyl reductases were assayed by a routine method used for NAD(P)-linked enzymes by recording the rate of decrease of NADPH at 340 nm (ε = 6.22 mM^-1.cm^-1) with substrates at 30 °C. The reaction mixture (1 ml) for reduction of alpha-ketocarbonyl substrates contained 10 mM substrate, 40 mM potassium phosphate buffer pH 7.0, 0.025 mM NADPH , and the enzyme. Reactions were induced by addition of enzyme or substrate. One unit of enzyme activity was defined as the amount of enzyme catalyzing the conversion of 1 µmol of pyridine nucleotide per min at 30 °C.
(§3) For each enzyme (Gox0313, Gox0502, Gox0644, Gox0646, Gox1615, Gox2107, and Gox2684 respectively), fresh enzyme preparations were used to validate the substrate spectrum and the kinetic activity. […] Purified NAD(P)-dependent oxidoreductases were assayed at 30 °C by a routine method used for NAD(P)-linked enzymes by recording the rate of decrease of NAD(P)H at 340 nm (ε = […]) with substrates capable of reduction reactions. The standard reaction mixture (1 ml) for the reduction reactions of substrates contained 10 mM substrate, 40 mM potassium phosphate buffer (K-phosphate buffer) pH 7.0, 0.05 mM NAD(P)H, and the enzyme unless otherwise noted. Reactions were induced by addition of enzyme or substrate. One unit of enzyme activity was defined as the amount of enzyme catalyzing the conversion of 1 µmol of pyridine nucleotide per min at 30 °C. Measurement of the protein content was performed by the method of Bradford in Anal. Biochem. 72:248-254 (1976). Table 3: Summary of enzymatic activities with α-diketones, α-ketoaldehydes and /or α-ketoesters

Gox2107 = Gox2107 (Gluconobacter oxydans, UniProt Q5FP53); assay: Enzyme activity assay (rate of NAD(P)H decrease at 340 nm), Gox2107; format: biochemical; settings: for Specific Activity: Tab. 7, Gox2107, cofactor NADPH, 10 mM substrate, pH 7.0, 30 °C
Procedure: as §1, §2, §3

Gox2684 = molecular target: T2, Gox2684; assay: Enzyme activity assay (rate of NAD(P)H decrease at 340 nm), Gox2684; format: biochemical; settings: Tab. 8, GOX2684; cofactor NADPH; 10 mM substrate, pH 7.0, 30 °C
Procedure: as §1, §2, §3

Gox0502 = molecular target: T3, Gox0502; assay: Enzyme activity assay (rate of NAD(P)H decrease at 340 nm), Gox0502; format: biochemical; set-up: Strep-tag II (N); made in house; host or cells: E. coli BL21 or E. coli DH5α (pASK-IBA5); settings: 10 mM substrate; for Specific Activity: Tab. 7, Gox0502, cofactor NADPH, pH 7.0, 30 °C
Procedure: as §1, §2, §3

Gox0313 = molecular target: T4, Gox0313; assay: Enzyme activity assay (rate of NAD(P)H decrease at 340 nm), Gox0313; format: biochemical; settings: 10 mM substrate; for Specific Activity: Tab. 6, Gox0313, substrate reduction, cofactor NADH, pH 7.0, 30 °C
Procedure: as §1, §2, §3

Gox0644 = Gox0644 (Gluconobacter oxydans, UniProt Q5FT75); assay: Enzyme activity assay (rate of NAD(P)H decrease at 340 nm), Gox0644; format: biochemical; settings: 10 mM substrate; for Specific Activity: Tab. 4, Gox0644, cofactor NADPH, pH 7.0, 30 °C
Procedure: (§4) Reactions were induced by addition of enzyme or substrate. One unit of enzyme activity was defined as the amount of enzyme catalyzing the conversion of 1 µmol of pyridine nucleotide per min at 30 °C.
as §4
For each enzyme (Gox0313, Gox0502, Gox0644, Gox0646, Gox1615, Gox2107, and Gox2684 respectively), fresh enzyme preparations were used to validate the substrate spectrum and the kinetic activity. […] Reactions were induced by addition of enzyme or substrate. One unit of enzyme activity was defined as the amount of enzyme catalyzing the conversion of 1 µmol of pyridine nucleotide per min at 30 °C. […] Table 3: Summary of enzymatic activities with α-diketones, α-ketoaldehydes and /or α-ketoesters

Gox1615 = molecular target: T5, Gox1615; assay: Enzyme activity assay (rate of NAD(P)H decrease at 340 nm), Gox1615; format: biochemical; settings: 10 mM substrate; for Specific Activity: Tab. 5, Gox1615, cofactor NADPH, pH 7.0, 30 °C
Procedure: as §1, §2, §3

[1] = substrate: CCC(=O)C(C)=O; assay: Enzyme kinetics (Lineweaver-Burk plots), Gox0646; format: biochemical, Gluconobacter oxydans; settings: other: Gox0646; substrate 0.025 to 10 mM
Procedure: (§5) Determination of pH and temperature optima and enzyme kinetics: The optimum pH for enzyme activities was determined by a modified method of Salusjärvi, T. et al., Appl. Microbiol. Biotechnol. 65:306-314 (2004) using the following buffer system (50 mM final concentration each): sodium acetate pH 4.5 - 6.5, potassium phosphate pH 6.5 - 8.0, Tris-HCl pH 8.0 - 10. Temperature optima for the biocatalysts were determined under standard reaction conditions at temperatures ranging from 20 - 80 °C. The Michaelis constant (Km) for the proteins was determined from purified enzyme by Lineweaver-Burk plots. Assays were performed at optimum pH for each enzyme and at 30 °C using the top substrate and a targeted substrate. The Km for each substrate was calculated using concentrations of 0.0025 to 10 mM, and the Km NAD(P)H and NAD(P) was calculated using concentrations of 0.01 to 0.5 mM
(§6) The Michaelis constants were determined from purified enzyme by Lineweaver-Burk plots. The Km and Vmax values for the substrates were calculated using concentrations of 0.025 to 10 mM, The optimal pH values and temperatures for enzyme activities are also shown in Tab. 11. Tab. 11: Summary of kinetic parameters

[2] = substrate: CC=O; assay: Enzyme kinetics (Lineweaver-Burk plots), Gox0313; format: biochemical, Gluconobacter oxydans; settings: other: Gox0313; substrate 0.025 to 10 mM
Procedure: as §5, §6

[3] = substrate: CCC(=O)C(C)=O; assay: Enzyme kinetics (Lineweaver-Burk plots), Gox0313; format: biochemical, Gluconobacter oxydans; settings: other: Gox0313; substrate 0.025 to 10 mM
Procedure: as §5, §6

Row | Specific Activity (Gox0644) | Specific Activity (Gox1615) | Molecule | Specific Activities (Gox0646) | Specific Activity (Gox2107) | Specific Activity (Gox0502) | also measured
1 |  |  | O=C1C=CC(=O)c2ccccc21 [1,4-naphthoquinone] | 0.2 U/mg | 217.5 U/mg | 16.6 U/mg | activities (Gox2107; Gox2107, reduction with NADPH): 217.4 µmol/mg/min; Specific Activities (Gox2684): 3.4 U/mg
2 | 60.0 U/mg | 6 U/mg | CC(=O)C(C)=O [2,3-butanedione] | 0.8 U/mg | < 0.1 U/mg | 0.5 U/mg | Specific Activity (Gox0313): 28.5 U/mg; Specific Activities (Gox2684): 0.5 U/mg
3 |  |  | O=C1C=CC(=O)C=C1 [p-benzoquinone] | 0.3 U/mg | 180.5 U/mg | 10 U/mg | 
4 | 16.1 U/mg | 2.4 U/mg | O=C1Nc2ccccc2C1=O [Isatin] | 0.1 U/mg |  |  | 
5 |  |  | Gox0646 (Gluconobacter oxydans 621H) (protein) MLNLDLSGRTALVTGSTGGIGLAIARKLGEAGATVIINGRKQEGVDSALEKLAKAIPGGAFRSVVADVGTAEGCKALFEAESSVDVLVNNAGIFGPNDFFQTTDESWEHLFEVNLFSGVRLSRAYMPGMKERNWGRVLFIASESALNIPVEMVDYGVSKTAMLGLARGLAKLMAGTNVTVNSVLPGPTLSEGVEDMLKAQNPDSTRPVAELAAEFVQKHRPSNILRRMATVDEVANLVVYAASPLASATTGAALRVDGGTVDTI |  |  |  | Km [1]: 9 mM and 9.3 mM; Vmax [1]: 10 U/mg protein and 10.0 µmol/min•mg
6 |  |  | Gox0313 (Gluconobacter oxydans 621H) (protein) MADTMLAAVVREFGKPLSIERLPIPDIKPHQILVKVDTCGVCHTDLHAARGDWPSKPNPPFIPGHEGVGHIVAVGSQVGDFVKTGDVVGVPWLYSACGHCEHCLGGWETLCEKQDDTGYTVNGCFAEYVVADPNYVAHLPSTIDPLQASPVLCAGLTVYKGLKMTEARPGQWVAVSGVGGLGQMAVQYAVAMGMNVVAVDIDDEKLATAKKLGASLTVNAKDTDPARFIQQQIGGAHGALVTAVGRTAFSQAMGYARRGGTIVLNGLPPGDFPVSIFDMVMNGTTIRGSIVGTRLDMIEAMDFFARGKVKSVVTPGKLENINTIFDDLQNGRLEGRTVLDFRS |  |  |  | Km [2]: 0.5 mM; Vmax [2]: 95 U/mg protein; Km [3]: 3.1 mM; Vmax [3]: 97 U/mg protein

Row | Molecule | Specific Activity (Gox0644) | Specific Activity (Gox1615) | Specific Activities (Gox0646) | Specific Activity (Gox2107) | Specific Activity (Gox0502) | also measured
7 | CC(=O)C(=O)c1ccccc1 [1-phenyl-1,2-propanedione] | 75.4 U/mg | 5.4 U/mg | 6.0 U/mg | < 0.1 U/mg | 2,0 U/mg | Specific Activity (Gox0313): 0.2 U/mg; Activity (Gox0313; Table 3, Gox0313, K-phosphate buffer pH 7.0, 0.05 mM NAD(P)H, 30 °C): 0.2 U/mg; Activity (Gox0644; Table 3, Gox0644, K-phosphate buffer pH 7.0, 0.05 mM NAD(P)H, 30 °C): 75.4 U/mg; Activity (Gox0646; Table 3, Gox0646, K-phosphate buffer pH 7.0, 0.05 mM NAD(P)H, 30 °C): 6.0 U/mg; Activity (Gox1615; Table 3, Gox1615, K-phosphate buffer pH 7.0, 0.05 mM NAD(P)H, 30 °C): 5.4 U/mg; Activity (Gox0502; Table 3, Gox0502, K-phosphate buffer pH 7.0, 0.05 mM NAD(P)H, 30 °C): 2.0 U/mg
